Reference: PubChem BioAssay (NCI)
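In this assay, cells in 96-well plates receive the compound at five concentrations for 48 hours. Endpoints are linearly interpolated between the surrounding concentrations. GI50: concentration for 50% inhibition of growth. TGI: concentration producing complete growth inhibition.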

Assays:
Experiment in all cases: inhibition of tumour cell growth, NCI panel, 48 h; in the data active = GI50 below about 0.43 µM; inactive = the rest
[1] = tested on: 786-0 renal
[2] = tested on: A498 renal
[3] = tested on: A549 NSCLC
[4] = tested on: ACHN renal
[5] = tested on: BT-549 breast
[6] = tested on: CAKI-1 renal
[7] = tested on: CCRF-CEM leukemia
[8] = tested on: COLO 205 colon
[9] = tested on: DU-145 prostate
[10] = tested on: EKVX NSCLC
[11] = tested on: HCC-2998 colon
[12] = tested on: HCT-116 colon
[13] = tested on: HCT-15 colon
[14] = tested on: HL-60(TB) leukemia
[15] = tested on: HOP-62 NSCLC
[16] = tested on: HOP-92 NSCLC
[17] = tested on: HS 578T breast
[18] = tested on: HT29 colon
[19] = tested on: IGROV1 ovarian
[20] = tested on: K-562 leukemia
[21] = tested on: KM12 colon
[22] = tested on: LOX IMVI melanoma
[23] = tested on: M14 melanoma
[24] = tested on: MALME-3M melanoma
[25] = tested on: MCF7 breast
[26] = tested on: MDA-MB-231 breast
[27] = tested on: MDA-MB-435
[28] = tested on: MDA-MB-468 breast
[29] = tested on: MOLT-4 leukemia
[30] = tested on: NCI-H226 lung
[31] = tested on: NCI-H23 lung
[32] = tested on: NCI-H460 lung
[33] = tested on: NCI-H522 lung
[34] = tested on: NCI/ADR-RES ovarian
[35] = tested on: OVCAR-3 ovarian
[36] = tested on: OVCAR-4 ovarian
[37] = tested on: OVCAR-5 ovarian
[38] = tested on: OVCAR-8 ovarian
[39] = tested on: PC-3 prostate
[40] = tested on: RPMI-8226 leukemia
[41] = tested on: RXF 393 renal
[42] = tested on: SF-268 CNS
[43] = tested on: SF-295 CNS
[44] = tested on: SF-539 CNS
[45] = tested on: SK-MEL-2 melanoma
[46] = tested on: SK-MEL-28 melanoma
[47] = tested on: SK-MEL-5 melanoma
[48] = tested on: SK-OV-3 ovarian
[49] = tested on: SN12C renal
[50] = tested on: SNB-19 CNS
[51] = tested on: SNB-75 CNS
[52] = tested on: SR leukemia
[53] = tested on: SW-620 colon
[54] = tested on: T-47D breast
[55] = tested on: TK-10 renal
[56] = tested on: U251 CNS
[57] = tested on: UACC-257 melanoma
[58] = tested on: UACC-62 melanoma
[59] = tested on: UO-31 renal

COc1ccc(S(=O)(=O)Nc2ccc(-c3ccc4c(c3)NC(=O)/C4=C\c3ccc[nH]3)cc2)cc1OC
33 µM: TGI [19]
17.4 µM: TGI [23]
30.8 µM: TGI [49]
7.07 µM: TGI [46]
41.3 µM: TGI [39]
20.8 µM: TGI [9]
23 µM: TGI [33]
1.27 µM: TGI [54]
active: GI50 [10] 0.0835 µM | GI50 [25] 0.0476 µM | GI50 [28] 0.0309 µM | GI50 [31] 0.194 µM | GI50 [32] 0.343 µM | GI50 [54] 0.0285 µM
11.8 µM: TGI [36]
28.5 µM: TGI [2]
19.9 µM: TGI [6]
38.9 µM: TGI [27]
20.2 µM: TGI [4]
83.3 µM: TGI [8]
14.7 µM: TGI [31]
28.9 µM: TGI [38]
15.3 µM: TGI [26]
23.2 µM: TGI [56]
23.8 µM: TGI [37]
23.3 µM: TGI [15]
21.2 µM: TGI [51]
9.35 µM: TGI [5]
15.9 µM: TGI [24]
12.1 µM: TGI [57]
11 µM: TGI [44]
11.3 µM: TGI [32]
12.8 µM: TGI [30]
88.5 µM: TGI [12]
11.1 µM: TGI [25]
17.5 µM: TGI [10]
15.2 µM: TGI [1]
71.7 µM: TGI [53]
26.3 µM: TGI [50]
> 100 µM: TGI [7] | TGI [11] | TGI [13] | TGI [14] | TGI [18] | TGI [20] | TGI [21] | TGI [29] | TGI [34] | TGI [40] | TGI [52]
14.2 µM: TGI [3]
0.113 µM: TGI [28]
22.1 µM: TGI [47]
15.1 µM: TGI [43] | TGI [48]
55.2 µM: TGI [42]
6.74 µM: TGI [41]
18.7 µM: TGI [55]
inactive: GI50 [1] 3.43 µM | GI50 [2] 14.3 µM | GI50 [3] 2.18 µM | GI50 [4] 6.99 µM | GI50 [5] 2.23 µM | GI50 [6] 6.18 µM | GI50 [7] 16.1 µM | GI50 [8] 10.2 µM | GI50 [9] 4.88 µM | GI50 [11] 5.74 µM | GI50 [12] 4.72 µM | GI50 [13] 13.7 µM | GI50 [14] 8.35 µM | GI50 [15] 10.2 µM | GI50 [16] 3.43 µM | GI50 [17] 4.6 µM | GI50 [18] 7.61 µM | GI50 [19] 12.9 µM | GI50 [20] 11.9 µM | GI50 [21] 9.03 µM | GI50 [22] 6.39 µM | GI50 [23] 2.4 µM | GI50 [24] 4.26 µM | GI50 [26] 3.82 µM | GI50 [27] 6.35 µM | GI50 [29] 14.8 µM | GI50 [30] 1.82 µM | GI50 [33] 3.25 µM | GI50 [34] 14 µM | GI50 [35] 8.4 µM | GI50 [36] 1.76 µM | GI50 [37] 10.6 µM | GI50 [38] 11.2 µM | GI50 [39] 10.1 µM | GI50 [40] 8.33 µM | GI50 [41] 1.4 µM | GI50 [42] 15.3 µM | GI50 [43] 3.12 µM | GI50 [44] 1.66 µM | GI50 [45] 14.3 µM | GI50 [46] 0.886 µM | GI50 [47] 3.35 µM | GI50 [48] 3.59 µM | GI50 [49] 12.4 µM | GI50 [50] 12.6 µM | GI50 [51] 1.37 µM | GI50 [52] 0.86 µM | GI50 [53] 8.53 µM | GI50 [55] 3.3 µM | GI50 [56] 10.1 µM | GI50 [57] 0.691 µM | GI50 [58] 0.75 µM | GI50 [59] 12.9 µM
33.8 µM: TGI [45]
27.5 µM: TGI [35]
61.8 µM: TGI [17]
27.6 µM: TGI [22]
8.59 µM: TGI [58]
18.3 µM: TGI [16]
27.4 µM: TGI [59]

COc1sc(/C=N/NC(=O)c2[nH]c3ccc(Br)cc3c2-c2ccccc2)cc1Br
0.686 µM: TGI [33]
35.8 µM: TGI [22]
8.1 µM: TGI [5]
0.516 µM: TGI [8]
39.4 µM: TGI [2]
35.6 µM: TGI [29]
4.97 µM: TGI [47]
12 µM: TGI [35]
68.9 µM: TGI [30]
37.5 µM: TGI [15]
25.3 µM: TGI [51]
12.4 µM: TGI [32]
6.88 µM: TGI [28]
1.8 µM: TGI [27]
active: GI50 [8] 0.223 µM | GI50 [15] 0.353 µM | GI50 [27] 0.324 µM | GI50 [33] 0.259 µM | GI50 [48] 0.365 µM | GI50 [51] 0.359 µM
6.45 µM: TGI [34]
> 100 µM: TGI [1] | TGI [3] | TGI [4] | TGI [6] | TGI [7] | TGI [9] | TGI [10] | TGI [11] | TGI [12] | TGI [13] | TGI [16] | TGI [17] | TGI [18] | TGI [19] | TGI [20] | TGI [21] | TGI [23] | TGI [25] | TGI [26] | TGI [31] | TGI [36] | TGI [38] | TGI [39] | TGI [40] | TGI [41] | TGI [42] | TGI [43] | TGI [45] | TGI [46] | TGI [48] | TGI [49] | TGI [50] | TGI [52] | TGI [53] | TGI [54] | TGI [55] | TGI [56] | TGI [57] | TGI [58] | TGI [59]
5.51 µM: TGI [44]
69.9 µM: TGI [37]
5.53 µM: TGI [14]
inactive: GI50 [1] 2.84 µM | GI50 [2] 5.44 µM | GI50 [3] 3.35 µM | GI50 [4] 3.27 µM | GI50 [5] 3.3 µM | GI50 [6] 0.892 µM | GI50 [7] 2.11 µM | GI50 [9] 3.36 µM | GI50 [10] 5.7 µM | GI50 [11] 3.74 µM | GI50 [12] 1.25 µM | GI50 [13] 3.27 µM | GI50 [14] 1.62 µM | GI50 [16] 26.5 µM | GI50 [17] 1.92 µM | GI50 [18] 1.16 µM | GI50 [19] 3.5 µM | GI50 [20] 0.508 µM | GI50 [21] 3.03 µM | GI50 [22] 2.93 µM | GI50 [23] 2.25 µM | GI50 [25] 1.54 µM | GI50 [26] 3.21 µM | GI50 [28] 2.18 µM | GI50 [29] 3.16 µM | GI50 [30] 2.87 µM | GI50 [31] 3.67 µM | GI50 [32] 3.03 µM | GI50 [34] 2.12 µM | GI50 [35] 1.2 µM | GI50 [36] 9.78 µM | GI50 [37] 3.39 µM | GI50 [38] 0.499 µM | GI50 [39] 3.14 µM | GI50 [40] 1.92 µM | GI50 [41] 4.27 µM | GI50 [42] 2.82 µM | GI50 [43] 2.84 µM | GI50 [44] 1.93 µM | GI50 [45] 5.12 µM | GI50 [46] 4.89 µM | GI50 [47] 2.12 µM | GI50 [49] 2.91 µM | GI50 [50] 3.98 µM | GI50 [52] 1.1 µM | GI50 [53] 3.28 µM | GI50 [54] 45.2 µM | GI50 [55] 88.9 µM | GI50 [56] 3.65 µM | GI50 [57] > 100 µM | GI50 [58] 0.988 µM | GI50 [59] 4.21 µM
